Source: US12643907B2 (priority 2020, dated 2026)
Entries after “also recorded” stand apart in the source; their conditions may differ.

Experiments:
mice = experiment: Mouse 55° C. tail-withdrawal assay, antinociception of the compound itself (opioid agonist effects); format: in vivo; details: s.c.
MOR = molecular target: T1, MOR (Mus musculus, UniProt P42866); experiment: Mouse 55° C. warm-water tail withdrawal (WWTW) assay, antagonism of the MOR agonist morphine; format: in vivo; details: for antagonism of morphine-induced antinociception at 24 h: 24 h after a 30 mg/kg s.c. treatment
T1 construct: from tissue; host or cells: living mice (in vivo)

[1] = naloxone; cited from earlier work

T1 sequence (P42866 whole entry): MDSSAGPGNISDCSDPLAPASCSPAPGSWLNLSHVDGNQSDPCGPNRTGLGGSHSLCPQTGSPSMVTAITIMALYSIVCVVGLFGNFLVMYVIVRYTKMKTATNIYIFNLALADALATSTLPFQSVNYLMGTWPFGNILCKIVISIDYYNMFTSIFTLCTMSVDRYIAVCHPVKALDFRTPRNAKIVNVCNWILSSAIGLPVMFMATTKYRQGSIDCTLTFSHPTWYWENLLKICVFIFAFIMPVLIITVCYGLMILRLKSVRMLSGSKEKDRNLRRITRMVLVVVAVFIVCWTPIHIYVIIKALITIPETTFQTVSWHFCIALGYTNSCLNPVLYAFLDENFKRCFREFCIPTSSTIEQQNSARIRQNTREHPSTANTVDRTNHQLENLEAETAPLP

With `C=CCN1CCC23c4c5ccc(O)c4OC2C(N(C)CCS(=O)(=O)F)CCC3(O)C1C5` (racemic) [TJ-345] the “weak transient antinociception of compound alone” value (mice; >30 nmol i.c.v. or 60 mg/kg, first 40 min after treatment) was roughly 15%, the “antagonism of morphine-induced antinociception at 24 h” value (MOR; 30 mg/kg) was “only partial blockade; also recorded: only partially antagonized” and the “duration of blockade of opiate analgesia” value (MOR; doses as low as 3 nmol (i.c.v) or 30 mg/kg (s.c.)) was 24 to 48 h. For the same molecule, the “doses that antagonized morphine antinociception” value (MOR; i.c.v. pretreatment, not 0.3 nmol) was 3 to 300 nmol and the “doses that antagonized morphine antinociception” value (MOR; s.c. pretreatment, not 1 mg/kg) was 3 to 60 mg/kg.
In the case of `C=CCN1CC[C@]23c4c5ccc(O)c4O[C@H]2[C@H](N(C)CCS(=O)(=O)F)CC[C@@]3(O)C1C5` [TJ-171], the “antinociception of compound alone (opioid agonist effects)” value (mice; doses up to 30 mg/kg) was “did not display antinociception; also recorded: no antinociception”, the “duration of MOR antagonism” value (MOR; 30 mg/kg, s.c.) was “at least 24 hours” and the “antagonism of morphine-induced antinociception at 24 h” value (MOR) was “fully antagonized”.
In the case of `C=CCN1CC[C@]23c4c5ccc(O)c4O[C@H]2C(=O)CC[C@@]3(O)[C@H]1C5` [naloxone], the half-life [1] is given as 2 h.
